Source: patent US12060347B2 (BRISTOL-MYERS SQUIBB COMPANY, priority 2016, dated 2024)
Where a name gives a salt, the structure may show the parent alone.

Each compound was assayed against T1, human PAR4 (Homo sapiens, UniProt Q96RI0) (assay: PAR4 FLIPR assay: antagonism of agonist-peptide-induced calcium mobilization in PAR4-expressing HEK293 cells). Details: H-Ala-Phe(4-F)-[…]NH2-induced intracellular calcium mobilization, 11-point curves.
T1 construct: expressed in transfected cells; host or cells: HEK293 PAR4 Clone 1.2A (BMS Arctic ID 383940)
T1 sequence (Q96RI0 18-385): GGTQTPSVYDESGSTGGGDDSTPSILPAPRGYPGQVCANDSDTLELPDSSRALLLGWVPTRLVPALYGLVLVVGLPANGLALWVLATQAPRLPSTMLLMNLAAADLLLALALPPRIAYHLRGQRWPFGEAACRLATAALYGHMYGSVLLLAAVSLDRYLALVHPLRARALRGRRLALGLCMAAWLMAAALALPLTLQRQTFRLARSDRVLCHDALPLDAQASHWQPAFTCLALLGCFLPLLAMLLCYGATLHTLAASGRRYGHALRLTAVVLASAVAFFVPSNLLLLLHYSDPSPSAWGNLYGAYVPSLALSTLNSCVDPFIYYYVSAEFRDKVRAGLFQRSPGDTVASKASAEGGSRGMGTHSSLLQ
Type: cell-based

SMILES | IC50
COc1cnc2c(-c3nc4cc(F)c(O[C@@H](C)[C@@H](C)OC(=O)Nc5ccc(N)nc5)cc4s3)cc(C)cc2n1 [Example 602, (2R,3S)-3-((5-fluoro-2-(2-methoxy-7-methylquinoxalin-5-yl)benzo[d]thiazol-6-yl)oxy)butan-2-yl (6-aminopyridin-3-yl)carbamate] | 6.4 nM
COc1cnc2c(-c3nc4cc(F)c(O[C@@H](C)[C@@H](C)OC(=O)Nc5ccc(OC)nc5)cc4s3)cc(Cl)cc2c1 [Example 784, (2R,3S)-3-((2-(6-chloro-3-methoxyquinolin-8-yl)-5-fluorobenzo[d]thiazol-6-yl)oxy)butan-2-yl (6-methoxypyridin-3-yl)carbamate] | 2.8 nM
COc1cc(C(O)C(F)(F)F)c2nc(-c3cc(C)cc4nc(OC)cnc34)sc2c1 (centres unmarked) [Example 174, 2,2,2-trifluoro-1-(6-methoxy-2-(2-methoxy-7-methylquinoxalin-5-yl)benzo[d]thiazol-4-yl)ethanol] | 3 nM
COc1cnc2c(-c3nc4cc(F)c(O[C@@H](C)[C@@H](C)OC(=O)Nc5ccncc5)nc4s3)cc(C)cc2n1 [Example 713, (2R,3S)-3-((6-fluoro-2-(2-methoxy-7-methylquinoxalin-5-yl)thiazolo[5,4-b]pyridin-5-yl)oxy)butan-2-yl pyridin-4-ylcarbamate] | 1.8 nM
Cc1cc(-c2nc3ccccc3o2)c2ncc(OC(F)F)nc2c1 [Example 3, 2-(2-(difluoromethoxy)-7-methylquinoxalin-5-yl)benzo[d]oxazole] | 240 nM
COc1cnc2c(-c3nc4cc(F)c(O[C@@H](C)[C@@H](C)OC(=O)Nc5cnc(C(=O)NC[C@H](C)O)nc5)nc4s3)cc(C)cc2n1 [Example 753, (2R,3S)-3-((6-fluoro-2-(2-methoxy-7-methylquinoxalin-5-yl)thiazolo[5,4-b]pyridin-5-yl)oxy)butan-2-yl (2-(((S)-2-hydroxypropyl)carbamoyl)pyrimidin-5-yl)carbamate] | 12 nM
COc1cnc2c(-c3nc4cc(F)c(OC[C@@H](C)OC(=O)Nc5ccc(C(=O)N6CC[C@@H](CO)C6)nc5)cc4s3)cc(C)cc2n1 [Example 476, (R)-1-((5-fluoro-2-(2-methoxy-7-methylquinoxalin-5-yl)benzo[d]thiazol-6-yl)oxy)propan-2-yl (6-((R)-3-(hydroxymethyl)pyrrolidine-1-carbonyl)pyridin-3-yl)carbamate] | 10 nM
COc1cnc2c(-c3nc4cc(F)c(OC[C@@H](C)OC(=O)Nc5cnc(CO)nc5)nc4s3)cc(C)cc2n1 [Example 768, (R)-1-((6-fluoro-2-(2-methoxy-7-methylquinoxalin-5-yl)thiazolo[5,4-b]pyridin-5-yl)oxy)propan-2-yl (2-(hydroxymethyl)pyrimidin-5-yl)carbamate] | 10 nM
COc1cc(C(O)C2(C(F)(F)F)CC2)c2nc(-c3cc(C)cc4nc(OC)cnc34)sc2c1 (centres unmarked) [Example 667, (6-methoxy-2-(2-methoxy-7-methylquinoxalin-5-yl)benzo[d]thiazol-4-yl)(1-(trifluoromethyl)cyclopropyl)methanol] | 5.6 nM
COc1cnc2c(-c3nc4cc(F)c(OC[C@@H](C)OC(=O)Nc5ccc(OCC(F)(F)CO)nc5)nc4s3)cc(C)cc2n1 [Example 687, (R)-1-((6-fluoro-2-(2-methoxy-7-methylquinoxalin-5-yl)thiazolo[5,4-b]pyridin-5-yl)oxy) propan-2-yl (6-(2,2-difluoro-3-hydroxypropoxy)pyridin-3-yl)carbamate] | 0.9 nM
COc1cncc(NC(=O)O[C@H](C)[C@H](C)Oc2cc3sc(-c4cc(C)cc5nc(OC)cnc45)nc3cc2F)c1 [Example 420, (2R,3S)-3-((5-fluoro-2-(2-methoxy-7-methylquinoxalin-5-yl)benzo[d]thiazol-6-yl)oxy)butan-2-yl (5-methoxypyridin-3-yl)carbamate] | 2.2 nM
COCc1cnc2c(-c3nc4c(C)cc(OC)cc4s3)cc(C)cc2n1 [Example 183, 6-methoxy-2-(2-(methoxymethyl)-7-methylquinoxalin-5-yl)-4-methylbenzo[d]thiazole] | 0.6 nM
COc1cnc2c(-c3nc4cc(F)c(O[C@@H](C)[C@@H](C)OC(=O)Nc5ccc(C(=O)NC[C@@H](C)O)nc5)cc4s3)cc(C)cc2n1 [Example 439, (2R,3S)-3-((5-fluoro-2-(2-methoxy-7-methylquinoxalin-5-yl)benzo[d]thiazol-6-yl)oxy)butan-2-yl (6-(((R)-2-hydroxypropyl)carbamoyl)pyridin-3-yl)carbamate] | 0.9 nM
COc1cnc2c(-c3nc4c(Cl)c(F)c(O[C@@H](C)[C@@H](C)OC(=O)Nc5cccnc5)cc4s3)cc(Cl)cc2c1 [Example 799, (2R,3S)-3-((4-chloro-2-(6-chloro-3-methoxyquinolin-8-yl)-5-fluorobenzo[d]thiazol-6-yl)oxy)butan-2-yl pyridin-3-ylcarbamate] | 2.9 nM
COCc1cnc2c(-c3nc4c(C)cc(OC(F)F)cc4s3)cc(C)cc2n1 [Example 263, 6-(difluoromethoxy)-2-(2-(methoxymethyl)-7-methylquinoxalin-5-yl)-4-methylbenzo[d]thiazole] | 0.8 nM

The remaining compounds from weak to strong by IC50, led by results:

IC50 | SMILES
17 nM | COc1cnc2c(-c3nc4cc(F)c(OC[C@@H](C)OC(=O)Nc5ccnnc5)nc4s3)cc(C)cc2n1 [Example 698, (R)-1-((6-fluoro-2-(2-methoxy-7-methylquinoxalin-5-yl)thiazolo[5,4-b]pyridin-5-yl)oxy) propan-2-yl pyridazin-4-ylcarbamate]
16 nM | COC(=O)COc1cc2sc(-c3cc(C)cc4nc(OC)cnc34)nc2c(C)c1F [Example 285, methyl 2-((5-fluoro-2-(2-methoxy-7-methylquinoxalin-5-yl)-4-methylbenzo[d]thiazol-6-yl)oxy)acetate]
15 nM | COCc1cnc2c(-c3nc4c(C)c(C)c(OC(C)C(C)O)cc4s3)cc(C)cc2n1 (mixture of isomers) [Example 323, 3-((2-(2-(methoxymethyl)-7-methylquinoxalin-5-yl)-4,5-dimethylbenzo[d]thiazol-6-yl)oxy)butan-2-ol]
15 nM | COc1ccc(NC(=O)OCCOc2cc3sc(-c4cc(C)cc5nc(OC)cnc45)nc3cc2F)cn1 [Example 341, 2-((5-fluoro-2-(2-methoxy-7-methylquinoxalin-5-yl)benzo[d]thiazol-6-yl)oxy) ethyl (6-methoxypyridin-3-yl)carbamate]
8.3 nM | COCc1cnc2c(-c3nc4c(C#N)cc(OCCNS(=O)(=O)c5ccc(F)cc5)cc4s3)cc(C)cc2n1 [Example 109, N-(2-(4-cyano-2-(2-(methoxymethyl)-7-methylquinoxalin-5-yl)benzo[d]thiazol-6-yloxy)ethyl)-4-fluorobenzenesulfonamide]
3.6 nM | COCc1cnc2c(-c3nc4c(C)cc(O)cc4s3)cc(C)cc2n1 [Example 281, 2-(2-(methoxymethyl)-7-methylquinoxalin-5-yl)-4-methylbenzo[d]thiazol-6-ol]
2.7 nM | COc1cnc2c(-c3nc4cc(F)c(OC[C@@H](C)OC(=O)Nc5ccc(C#N)nc5)cc4s3)cc(C)cc2n1 [Example 351, (R)-1-((5-fluoro-2-(2-methoxy-7-methylquinoxalin-5-yl)benzo[d]thiazol-6-yl)oxy) propan-2-yl (6-cyanopyridin-3-yl)carbamate]
2.4 nM | COc1cnc2c(-c3nc4cc(F)c(OC[C@@H](C)OC(=O)Nc5ccc(C(=O)NC[C@@H](C)O)nc5)nc4s3)cc(C)cc2n1 [Example 747, (R)-1-((6-fluoro-2-(2-methoxy-7-methylquinoxalin-5-yl)thiazolo[5,4-b]pyridin-5-yl)oxy) propan-2-yl (6-(((R)-2-hydroxypropyl)carbamoyl)pyridin-3-yl)carbamate]
2.1 nM | COc1cnc2c(-c3cc4cc(OCCOC(=O)Nc5ccnc(C)c5)cc(Cl)c4o3)cc(C)cc2n1 [Example 38, 2-((7-chloro-2-(2-methoxy-7-methylquinoxalin-5-yl)benzofuran-5-yl)oxy)ethyl (2-methylpyridin-4-yl)carbamate]
2 nM | COc1cnc2c(-c3nc4c(C)c(F)c(OC)cc4s3)cc(C(C)O)cc2n1 (centres unmarked) [Example 244, 1-(8-(5-fluoro-6-methoxy-4-methylbenzo[d]thiazol-2-yl)-3-methoxyquinoxalin-6-yl) ethanol]
1.8 nM | COc1cnc2c(-c3nc4cc(F)c(OC[C@@H](C)OC(=O)Nc5ccc(C(=O)NCC(C)(C)OP(=O)(O)O)nc5)cc4s3)cc(C)cc2n1 [Example 530, (R)-1-((5-fluoro-2-(2-methoxy-7-methylquinoxalin-5-yl)benzo[d]thiazol-6-yl)oxy) propan-2-yl (6-((2-methyl-2-(phosphonooxy)propyl)carbamoyl)pyridin-3-yl)carbamate, TFA]
1.6 nM | COc1cnc2c(-c3nc4cc(F)c(O[C@@H](C)[C@@H](C)OC(=O)Nc5ccnc(OCC(C)(C)O)c5)cc4s3)cc(C)cc2n1 [Example 562, (2R,3S)-3-((5-fluoro-2-(2-methoxy-7-methylquinoxalin-5-yl)benzo[d]thiazol-6-yl)oxy)butan-2-yl (2-(2-hydroxy-2-methylpropoxy)pyridin-4-yl)carbamate]
1.3 nM | COc1ccc(NC(=O)OCCOc2ccc3nc(-c4cc(C)cc5nc(OC)cnc45)sc3c2)cn1 [Example 115, 2-(2-(2-methoxy-7-methylquinoxalin-5-yl)benzo[d]thiazol-6-yloxy)ethyl 6-methoxypyridin-3-ylcarbamate]
0.3 nM | COc1cc(NC(=O)O[C@H](C)[C@H](C)Oc2cc3sc(-c4cc(C)cc5nc(OC)cnc45)nc3cc2F)ccn1 [Example 412, (2R,3S)-3-((5-fluoro-2-(2-methoxy-7-methylquinoxalin-5-yl)benzo[d]thiazol-6-yl)oxy)butan-2-yl (2-methoxypyridin-4-yl)carbamate]
